A short description of the experiment: Displacement of [3H]PAF from rabbit PAF receptor. On the set-up: species or system Oryctolagus cuniculus.
Regarding `O=C(/C=C/CCc1ccccc1)CCc1ccccc1`, the half-maximal inhibitory concentration (IC50) turned out to be 5000 nM.
As for `COC(CCc1ccccc1)CC(=O)CCc1ccccc1` (stereo not drawn), the figure is 1600 nM; as for `O=C(/C=C/C(O)Cc1ccccc1)CCc1ccccc1` (stereo not drawn), 1300 nM.
